In article PMC9073595, “Synthesis, human topoisomerase IIα inhibitory properties and molecular modeling studies of anti-proliferative curcumin mimics” (RSC Advances, 2019):

Columns and labels:
[1] = molecular target: T1, human DNA topoisomerase IIα (Homo sapiens, UniProt P11388); assay: Human DNA topoisomerase IIα activity assay (TopoGEN kit, plasmid based); type: biochemical
T1 construct: purchased TopoGEN, Inc

[2] = tested on: A431 (squamous skin) carcinoma cell line; assay: MTT anti-proliferative assay, A431; type: cell-based; details: Homo sapiens, A-431, 72 h; read-out: IC50, μM ± SD, A431
[3] = tested on: RPE1 (normal human immortalized retinal pigment epithelial cell line); assay: MTT assay on normal cells, RPE1; type: cell-based; details: RPE-1, RPE1 normal (non-cancer) cell line, read-out: IC50, μM ± SD, RPE1
Experimental: In-vitro antitumor screening
The targeted piperidinecarboxamides 24‒51 were screened for their antitumor properties against HCT116 (colon), MCF7 (breast) and A431 (squamous skin) carcinoma cell lines by the standard mitochondrial dependent reduction of yellow MTT [3-(4,5-dimethylthiazol-2-yl)-2,5-diphenyl-tetrazolium bromide] to purple formazan technique.11 Cells were suspended in McCoy’s 5A medium for HCT116, DMEM for MCF-7 and A431 in addition to 1% antibiotic–antimycotic mixture (10000 μg ml-1 potassium penicillin, 10000 μg ml-1 streptomycin sulfate and 25 μg ml-1 amphotericin B), 10% fetal bovine serum and 1% L-glutamine at 37 °C, under 5% CO2 and 95% humidity. Cells were seeded at concentration of 30000 cells per well in fresh complete growth medium in 96-well tissue culture microtiter plates for 24 h. Media was aspirated, fresh complete medium was added and cells were incubated with different concentrations of the tested compound to give a final concentration of [50, 25, 12.5 and 6.25 μM ([…] and 0.375 μM for the high potent analogues)]. 0.5% DMSO was used as negative control and 5-fluorouracil was used as positive control (standard reference). Triplicate wells were prepared for each individual dose. After 72 h of incubation, medium was aspirated, 40 μl MTT salt (2.5 mg ml-1) were added to each well and incubated for further 4 h at 37 °C.
To stop the reaction and dissolve the formed crystals, 150 μl of 10% sodium dodecyl sulfate (SDS) in deionized water were added to each well and incubated overnight at 37 °C. The absorbance was then measured at 570 nm and a reference wavelength of 595 nm.
Data were collected as mean values for experiments performed in triplicates for each individual dose which had been measured by MTT assay. Control experiments did […]
survival was calculated according to equ. (1).
Surviving fraction = … . (1)
The synthesized compounds 24‒51 were also tested against RPE1 (normal human immortalized retinal pigment epithelial cell line) cell to determine the toxicity/selectivity […]
towards normal cells relative to the carcinoma cell lines utilized. The IC50 (concentration […]
was determined using Graph-Pad PRISM version-5 software. Statistical calculations for determination of the mean and standard error values were determined by SPSS 16 […]
8:1 which is the ratio between the data points and the number of QSAR descriptor).
Human DNA topoisomerase IIα inhibitory properties

[4] = tested on: HCT116 (colon) carcinoma cell line; assay: MTT anti-proliferative assay, HCT116; type: cell-based; details: Homo sapiens, HCT-116, 72 h; read-out: IC50, μM ± SD, HCT116
[5] = tested on: MCF7 (breast) carcinoma cell line; assay: MTT anti-proliferative assay, MCF7; type: cell-based; details: Homo sapiens, MCF7, 72 h; read-out: IC50, μM ± SD, MCF7

T1 sequence (P11388 whole entry): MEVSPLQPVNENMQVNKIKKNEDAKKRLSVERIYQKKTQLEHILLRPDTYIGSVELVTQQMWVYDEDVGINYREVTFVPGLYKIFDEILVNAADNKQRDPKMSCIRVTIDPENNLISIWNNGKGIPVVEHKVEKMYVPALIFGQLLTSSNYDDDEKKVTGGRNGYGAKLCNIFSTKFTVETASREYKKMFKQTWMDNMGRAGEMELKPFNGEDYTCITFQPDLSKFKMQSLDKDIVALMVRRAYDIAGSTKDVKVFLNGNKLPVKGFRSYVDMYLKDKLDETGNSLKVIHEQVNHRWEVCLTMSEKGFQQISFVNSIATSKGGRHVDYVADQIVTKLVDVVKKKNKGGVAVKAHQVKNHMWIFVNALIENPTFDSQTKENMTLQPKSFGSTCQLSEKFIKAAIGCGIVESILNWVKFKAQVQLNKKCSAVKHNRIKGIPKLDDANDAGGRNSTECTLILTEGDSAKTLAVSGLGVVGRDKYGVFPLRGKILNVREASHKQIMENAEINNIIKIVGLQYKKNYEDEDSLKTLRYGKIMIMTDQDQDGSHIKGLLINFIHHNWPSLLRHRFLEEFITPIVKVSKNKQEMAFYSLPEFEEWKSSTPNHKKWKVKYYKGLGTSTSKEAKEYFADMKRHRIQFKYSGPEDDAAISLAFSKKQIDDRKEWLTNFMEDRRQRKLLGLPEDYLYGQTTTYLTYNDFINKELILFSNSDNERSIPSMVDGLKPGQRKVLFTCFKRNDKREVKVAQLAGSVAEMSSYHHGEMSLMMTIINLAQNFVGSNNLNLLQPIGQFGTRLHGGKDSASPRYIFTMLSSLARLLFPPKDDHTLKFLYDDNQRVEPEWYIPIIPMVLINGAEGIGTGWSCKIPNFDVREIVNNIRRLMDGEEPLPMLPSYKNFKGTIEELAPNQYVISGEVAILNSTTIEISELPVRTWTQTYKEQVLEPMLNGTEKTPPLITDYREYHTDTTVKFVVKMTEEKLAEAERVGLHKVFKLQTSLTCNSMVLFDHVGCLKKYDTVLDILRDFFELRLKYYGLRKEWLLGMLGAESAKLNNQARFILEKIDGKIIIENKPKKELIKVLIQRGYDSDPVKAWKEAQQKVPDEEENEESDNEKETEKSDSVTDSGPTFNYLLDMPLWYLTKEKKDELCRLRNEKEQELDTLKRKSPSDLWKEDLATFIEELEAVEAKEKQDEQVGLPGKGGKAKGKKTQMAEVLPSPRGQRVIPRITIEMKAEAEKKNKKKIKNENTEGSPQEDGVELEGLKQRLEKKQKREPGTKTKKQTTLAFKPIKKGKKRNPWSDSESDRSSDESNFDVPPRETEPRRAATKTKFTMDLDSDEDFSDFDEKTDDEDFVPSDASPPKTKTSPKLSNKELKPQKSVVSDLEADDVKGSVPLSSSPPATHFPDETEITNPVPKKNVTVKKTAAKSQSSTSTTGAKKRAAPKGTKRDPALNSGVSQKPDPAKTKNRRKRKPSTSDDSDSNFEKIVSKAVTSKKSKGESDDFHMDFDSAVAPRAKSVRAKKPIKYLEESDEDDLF

Compound	IC50 [1] [µM]	IC50 [2] [µM]	IC50 [3] [µM]	IC50 [4] [µM]	IC50 [5] [µM]	melting point [°C]
COc1ccc(/C=C\c2cc(OC)c(OC)c(OC)c2)cc1O [Combretastatin A-4, reference compound]	22 ± 0.85	–	–	–	–	–
CCNC(=O)N1C/C(=C\c2ccc(F)cc2)C(=O)/C(=C/c2ccc(F)cc2)C1 [Compound 37, N-Ethyl-3,5-bis[(E)-4-fluorobenzylidene]-4-oxopiperidine-1-carboxamide]	27.2 ± 1.72	1.18 ± 0.11	9.78 ± 1.53	0.57 ± 0.07	2.32 ± 0.3	180 to 182
O=C1/C(=C/c2ccc(F)cc2)CN(C(=O)Nc2ccc(Cl)cc2)C/C1=C\c1ccc(F)cc1 [Compound 35, N-(4-Chlorophenyl)-3,5-bis[(E)-4-fluorobenzylidene]-4-oxopiperidine-1-carboxamide]	26.4 ± 1.61	1.2 ± 0.14	8.26 ± 2.33	0.56 ± 0.06	1.36 ± 0.17	192 to 194
CCNC(=O)N1C/C(=C\c2ccc(OC)cc2)C(=O)/C(=C/c2ccc(OC)cc2)C1 [Compound 46, N-Ethyl-3,5-bis[(E)-4-methoxybenzylidene]-4-oxopiperidine-1-carboxamide]	56.2 ± 2.18	8.83 ± 1.26	47.7 ± 3.05	1.5 ± 0.14	5.73 ± 0.33	173 to 175
COc1ccc(NC(=O)N2C/C(=C\c3ccc(C)cc3)C(=O)/C(=C/c3ccc(C)cc3)C2)cc1 [Compound 40, N-(4-Methoxyphenyl)-3,5-bis[(E)-4-methylbenzylidene]-4-oxopiperidine-1-carboxamide]	40.3 ± 1.56	4.9 ± 0.34	> 50	2.73 ± 0.2	5.1 ± 0.3	230 to 232
O=C1/C(=C/c2ccc(F)cc2)CN(C(=O)Nc2ccccc2)C/C1=C\c1ccc(F)cc1 [Compound 34, 3,5-Bis[(E)-4-fluorobenzylidene]-4-oxo-N-phenylpiperidine-1-carboxamide]	30.7 ± 1.32	1.27 ± 0.09	17.5 ± 2.16	0.56 ± 0.04	2.34 ± 0.29	191 to 193
COc1ccc(NC(=O)N2C/C(=C\c3ccc(F)cc3)C(=O)/C(=C/c3ccc(F)cc3)C2)cc1 [Compound 36, 3,5-Bis[(E)-4-fluorobenzylidene]-N-(4-methoxyphenyl)-4-oxopiperidine-1-carboxamide]	23 ± 1.37	1.31 ± 0.08	9.46 ± 1.86	0.62 ± 0.05	1.71 ± 0.12	189 to 191
O=C1/C(=C/c2ccc(F)cc2)CN(C(=O)NCc2ccccc2)C/C1=C\c1ccc(F)cc1 [Compound 38, N-Benzyl-3,5-bis[(E)-4-fluorobenzylidene]-4-oxopiperidine-1-carboxamide]	35 ± 2.08	1.33 ± 0.17	10.9 ± 1.42	0.56 ± 0.03	2.16 ± 0.15	178 to 180
COc1ccc(/C=C2\CN(C(=O)Nc3ccc(Cl)cc3)C/C(=C\c3ccc(OC)cc3)C2=O)cc1 [Compound 44, N-(4-Chlorophenyl)-3,5-bis[(E)-4-methoxybenzylidene]-4-oxopiperidine-1-carboxamide]	46.2 ± 1.79	2.85 ± 0.16	> 50	1.11 ± 0.09	4.17 ± 0.27	185 to 187
O=C1/C(=C/c2ccc(Cl)cc2)CN(C(=O)Nc2ccc(Cl)cc2)C/C1=C\c1ccc(Cl)cc1 [Compound 30, 3,5-Bis[(E)-4-chlorobenzylidene]-N-(4-chlorophenyl)-4-oxopiperidine-1-carboxamide]	41.8 ± 2.42	0.64 ± 0.08	4.89 ± 1.97	0.58 ± 0.07	1.13 ± 0.29	185 to 187
O=C1/C(=C/c2ccc(Cl)cc2)CN(C(=O)Nc2ccccc2)C/C1=C\c1ccc(Cl)cc1 [Compound 29, 3,5-Bis[(E)-4-chlorobenzylidene]-4-oxo-N-phenylpiperidine-1-carboxamide]	29 ± 1.39	1.29 ± 0.15	9.67 ± 2.03	0.7 ± 0.06	1.33 ± 0.24	205 to 207
COc1ccc(NC(=O)N2C/C(=C\c3ccccc3)C(=O)/C(=C/c3ccccc3)C2)cc1 [Compound 26, 3,5-Di[(E)-benzylidene]-N-(4-methoxyphenyl)-4-oxopiperidine-1-carboxamide]	–	2.83 ± 0.36	17.7 ± 1.98	1.43 ± 0.2	2.48 ± 0.31	184 to 186
COc1ccc(/C=C2\CN(C(=O)Nc3ccc(OC)cc3)C/C(=C\c3ccc(OC)cc3)C2=O)cc1 [Compound 45, 3,5-Bis[(E)-4-methoxybenzylidene]-N-(4-methoxyphenyl)-4-oxopiperidine-1-carboxamide]	39.3 ± 1.52	11.3 ± 1.1	> 50	1.38 ± 0.15	5.85 ± 0.31	212 to 214
O=C1/C(=C/c2ccc(Cl)cc2)CN(C(=O)NCc2ccccc2)C/C1=C\c1ccc(Cl)cc1 [Compound 33, N-Benzyl-3,5-bis[(E)-4-chlorobenzylidene]-4-oxopiperidine-1-carboxamide]	–	1.45 ± 0.12	11.4 ± 1.68	1.13 ± 0.19	2.14 ± 0.26	199 to 201
Cc1ccc(/C=C2\CN(C(=O)Nc3ccccc3)C/C(=C\c3ccc(C)cc3)C2=O)cc1 [Compound 39, 3,5-Bis[(E)-4-methylbenzylidene]-4-oxo-N-phenylpiperidine-1-carboxamide]	41.3 ± 1.6	2.57 ± 0.15	> 50	1.44 ± 0.17	3.96 ± 0.29	221 to 223
CCNC(=O)N1C/C(=C\c2ccc(C)cc2)C(=O)/C(=C/c2ccc(C)cc2)C1 [Compound 41, N-Ethyl-3,5-bis[(E)-4-methylbenzylidene]-4-oxopiperidine-1-carboxamide]	50.2 ± 1.94	2.64 ± 0.27	18.9 ± 1.33	2.26 ± 0.23	4.58 ± 0.28	174 to 176
COc1ccc(/C=C2\CN(C(=O)Nc3ccccc3)C/C(=C\c3ccc(OC)cc3)C2=O)cc1 [Compound 43, 3,5-Bis[(E)-4-methoxybenzylidene]-4-oxo-N-phenylpiperidine-1-carboxamide]	28.3 ± 1.09	2.72 ± 0.2	> 50	1.23 ± 0.15	3.96 ± 0.23	190 to 192
Cc1ccc(/C=C2\CN(C(=O)NCc3ccccc3)C/C(=C\c3ccc(C)cc3)C2=O)cc1 [Compound 42, N-Benzyl-3,5-bis[(E)-4-methylbenzylidene]-4-oxopiperidine-1-carboxamide]	31.5 ± 1.22	8.75 ± 0.4	47 ± 2.17	23 ± 1.82	4.9 ± 0.26	166 to 168
